Source: patent US20050014806A1, “Substituted isoxazoles and their use as antibiotics” (priority 2001, published 2005)
In brackets after ≈: the same amount, converted by molar mass.

What was measured:
[1] = tested on: HCT-116; assay: cells; assay type: cell-based, human; conditions: for viability at 100 µM: Homo sapiens, HCT-116, read-out: Cell viability percentage at 100 μM HCT-116
Method: (§1) Antitumoral activity of the compounds of the present invention was evaluated by determining in vitro cell growth inhibition of 2 human colon adenocarcinome cell lines. The SBR (Sulphorhodamine B) protein dye assay described by the NCI (National Cancer Institute) was used. Results of Table 2 illustrate the antiproliferative activity of some of the compounds of the present invention versus the one obtained with exisulind (sulindac sulfone).

[2] = tested on: HT-29; assay: cells; assay type: cell-based, human; conditions: for viability at 100 µM: Homo sapiens, HT-29, read-out: Cell viability percentage at 100 μM HT-29
Method: as §1

[3] = tested on: Streptococcus faecalis (BCM-010); assay: MIC by microdilution in microtiter plate, BCM-010; assay type: cell-based; conditions: Enterococcus faecalis, incubation 24 h at 35° C.
Method: (§2) In order to assess the antimicrobial activity of the compounds of the present invention a method of microdilution in microtiter plate was used. The compounds were diluted in a nutritious medium and, subsequently, distributed by two-fold serial dilutions in 96 well plates. Then, plates were inoculated with a bacterial suspension. After incubation for 24 h at 35° C. the minimum inhibitory concentration (MIC) of the drug in […] was determined as the lowest concentration of compound which inhibits the growth of the bacterium. Results included in Table 1 illustrate the antimicrobial activity of some of the compounds of the present invention in comparison with thus obtained with two compounds (linezolid and eperezolid) of a known antimicrobial activity. The antimicrobial activity of the compound versus Streptococcus faecalis (BCM-010, strain designation as for SALVAT collection) Staphylococcus aureus (BCM-012, strain designation as for SALVAT collection) and Moraxella catarrhalis (BCM-015, strain designation as for SALVAT collection), respectively, is shown in the different columns.

[4] = tested on: Staphylococcus aureus (BCM-012); assay: MIC by microdilution in microtiter plate, BCM-012; assay type: cell-based; conditions: incubation 24 h at 35° C.
Method: as §2

[5] = tested on: Moraxella catarrhalis (BCM-015); assay: MIC by microdilution in microtiter plate, BCM-015; assay type: cell-based; conditions: incubation 24 h at 35° C.
Method: as §2

OCc1cn(-c2ccc(-c3cc(CNc4ccon4)on3)cc2F)cn1 [Example 4]
viability at 100 µM [1]: 57.1%
viability at 100 µM [2]: 66.1%
MIC [3]: 4 µg/mL (≈ 11.3 µM)
MIC [4]: 2 µg/mL (≈ 5.63 µM)

N#C/C=C/c1cn(-c2ccc(-c3cc(CNc4ccon4)on3)cc2F)cn1 [Example 28]
viability at 100 µM [1]: 64.7%
viability at 100 µM [2]: 71.2%
MIC [3]: 1 µg/mL (≈ 2.66 µM)
MIC [5]: 4 µg/mL (≈ 10.6 µM)
MIC [4]: 0.5 µg/mL (≈ 1.33 µM)

N#C/C=C/c1ccn(-c2ccc(-c3cc(CNc4ccon4)on3)cc2F)c1 [Example 36]
viability at 100 µM [1]: 77.1%
viability at 100 µM [2]: 14.3%

Cc1cc(NCc2cc(-c3ccc(-n4ccc(/C=C/C#N)c4)c(F)c3)no2)sn1 [Example 37]
viability at 100 µM [1]: 18.9%
viability at 100 µM [2]: < 5%

Cc1cn(-c2ccc(-c3cc(CNc4ccon4)on3)cc2F)cn1 [Example 38]
viability at 100 µM [1]: 48.6%
viability at 100 µM [2]: 53.3%

sulindac sulfone [Exisulind, reference compound]
Cell viability percentage at 100 μM HCT-116 [1]: 44.1%
Cell viability percentage at 100 μM HT-29 [2]: 38.1%
